In patent US20250136558A1, “PYRAZINE COMPOUNDS AS IRREVERSIBLE INHIBITORS OF FLT3” (BIOMEA FUSION, INC., priority 2021, published 2025):

How the values were obtained:
MV-4-11 = test: Proliferation inhibition (CellTiter-Glo) in MV-4-11 cells; type: cell-based; details: Homo sapiens, MV4-11, 96 h, MV-4-11 AML cells, homozygous FLT3-ITD, IC50 (4 days)
Summary of the method: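 MV-4-11 human AML cells (homozygous FLT3-ITD) grown in RPMI-1640 with 10% heat-inactivated FBS and 1% Pen-Strep were seeded at about 10,000 cells per 200 μL in 96 well plates. Two hours later, compounds were dispensed at eight concentrations in duplicate. Viability was measured by CellTiter-Glo luminescence, and IC50 values came from four-parameter logistic non-linear regression against untreated cells (0.2% DMSO).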

MOLM-13 = test: Proliferation inhibition (CellTiter-Glo) in MOLM-13 cells; type: cell-based; details: Homo sapiens, 96 h, MOLM-13 AML cells, heterozygous FLT3-ITD, IC50 (4 days)
Summary of the method: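 MOLM-13 human AML cells, heterozygous for FLT3-ITD, were grown in RPMI-1640 with 10% heat-inactivated FBS and 1% Pen-Strep. About 10,000 cells in 200 μL were seeded per well of 96-well plates. After 2 hours, compounds from DMSO stocks were dispensed at eight concentrations in duplicate, with 0.2% DMSO as the untreated control. Viability was read as CellTiter-Glo ATP luminescence, and IC50 was obtained from a four-parameter logistic fit.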

K-562 = test: Proliferation inhibition (CellTiter-Glo) in K-562 cells; type: cell-based; details: Homo sapiens, K562, 96 h, K-562 CML cells, no FLT3 mutations, IC50 (4 days)
Summary of the method: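 The CML line […] (ATCC: CRL-3343) was cultured in RPMI-1640 with 10% heat-inactivated FBS and 1% Pen-Strep at 37° C. Cells were seeded at about 10,000 per 200 μL in 96-well plates, and test compound was dispensed 2 hours later at eight concentrations in duplicate. Viability was measured as ATP luminescence with CellTiter-Glo. Untreated cells (0.2% DMSO) defined 100% proliferation, and IC50 values came from four-parameter logistic fits.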

[1] = tested on: quizartinib-resistant AML; details: Yamaura et al., 2018; cited from earlier work

Row | IC50 (MV-4-11) | IC50 (MOLM-13) | IC50 (K-562) | SMILES | activity against quizartinib-resistant AML [1]
1 | < 0.001 µM | 0.001 to 0.01 µM | > 0.5 µM | CCc1nc(C(N)=O)c(Nc2cc(CCNC(=O)[C@H](C)N(C)C(=O)C#CCN(C)C)cc(OC)c2)nc1NC1CCOCC1 [Compound 136, (S)-3-((3-(2-(2-(4-(dimethylamino)-N-methylbut-2-ynamido)propanamido)ethyl)-5-methoxyphenyl)amino)-6-ethyl-5-((tetrahydro-2H-pyran-4-yl)amino)pyrazine-2-carboxamide] | –
2 | 0.01 to 0.1 µM | 0.01 to 0.1 µM | > 0.5 µM | CCc1nc(C(N)=O)c(Nc2cccc(OCCCNC(=O)[C@H](C)N(C)C/C=C/C(=O)N(C)C)c2)nc1NC1CCOCC1 [Compound 140, (S,E)-3-((3-(3-(2-((4-(dimethylamino)-4-oxobut-2-en-1-yl)(methyl)amino)propanamido)propoxy)phenyl)amino)-6-ethyl-5-((tetrahydro-2H-pyran-4-yl)amino)pyrazine-2-carboxamide] | –
3 | < 0.001 µM | 0.001 to 0.01 µM | > 0.5 µM | CCc1nc(C(N)=O)c(Nc2cccc(OCCCNC(=O)[C@H](C)N(C)C(=O)/C=C/CN(C)C)c2)nc1N(C)CC [Compound 146, (S,E)-3-((3-(3-(2-(4-(dimethylamino)-N-methylbut-2-enamido)propanamido)propoxy)phenyl)amino)-6-ethyl-5-(ethyl(methyl)amino)pyrazine-2-carboxamide] | –
4 | > 0.5 µM | > 0.5 µM | > 0.5 µM | CCc1nc(C(=O)NC)c(Nc2cccc(CCNC(=O)C(C)N(C)C(=O)/C=C/CN(C)C)c2)nc1NC1CCOCC1 (stereo not shown) [Compound 152, (E)-3-((3-(2-(2-(4-(dimethylamino)-N-methylbut-2-enamido)propanamido)ethyl)phenyl)amino)-6-ethyl-N-methyl-5-((tetrahydro-2H-pyran-4-yl)amino)pyrazine-2-carboxamide] | –
5 | 0.01 to 0.1 µM | > 0.5 µM | > 0.5 µM | CCc1nc(C(N)=O)c(Nc2cccc(CCNC(=O)C3(N(C)C(=O)/C=C/CN(C)C)CCC3)c2)nc1C [Compound 210, (E)-3-((3-(2-(1-(4-(dimethylamino)-N-methylbut-2-enamido)cyclobutane-1-carboxamido)ethyl)phenyl)amino)-6-ethyl-5-methylpyrazine-2-carboxamide] | –
6 | > 0.5 µM | > 0.5 µM | > 0.5 µM | CC#CC(=O)N(C)[C@@H](C)C(=O)NCCc1cccc(Nc2nc(C)c(C)nc2C(N)=O)c1 [Compound 212, (S)-5,6-dimethyl-3-((3-(2-(2-(N-methylbut-2-ynamido)propanamido)ethyl)phenyl)amino)pyrazine-2-carboxamide] | –
7 | 0.01 to 0.1 µM | > 0.5 µM | > 0.5 µM | CC#CC(=O)N(C)[C@@H](C)C(=O)NCCc1cccc(Nc2nc(C3CC3)c(C)nc2C(N)=O)c1 [Compound 235, (S)-5-cyclopropyl-6-methyl-3-((3-(2-(2-(N-methylbut-2-ynamido)propanamido)ethyl)phenyl)amino)pyrazine-2-carboxamide] | –

The next lines start with the compound.

Row | SMILES | IC50 (MV-4-11) | IC50 (MOLM-13) | IC50 (K-562) | activity against quizartinib-resistant AML [1]
8 | CCc1nc(C(N)=O)c(Nc2cccc(OCCCNC(=O)[C@H](C)N(C)C(=O)/C=C/CN3CC(F)C3)c2)nc1NC1CCOCC1 [Compound 139, (S,E)-6-Ethyl-3-((3-(3-(2-(4-(3-fluoroazetidin-1-yl)-N-methylbut-2-enamido)propanamido)propoxy)phenyl)amino)-5-((tetrahydro-2H-pyran-4-yl)amino)pyrazine-2-carboxamide] | < 0.001 µM | 0.001 to 0.01 µM | > 0.5 µM | –
9 | CCc1nc(C(N)=O)c(Nc2cccc(OCCCNC(=O)[C@H](C)N(C)C(=O)/C=C/CN(C)C)c2)nc1N(CC)CC [Compound 141, (S,E)-5-(diethylamino)-3-((3-(3-(2-(4-(dimethylamino)-N-methylbut-2-enamido)propanamido)propoxy)phenyl)amino)-6-ethylpyrazine-2-carboxamide] | < 0.001 µM | < 0.001 µM | > 0.5 µM | –
10 | CCc1nc(C(N)=O)c(Nc2cccc(OCCCNC(=O)[C@H](C)N(C)C(=O)/C=C/CN(C)C)c2)nc1N1CCCC1 [Compound 142, (S,E)-3-((3-(3-(2-(4-(dimethylamino)-N-methylbut-2-enamido)propanamido)propoxy)phenyl)amino)-6-ethyl-5-(pyrrolidin-1-yl)pyrazine-2-carboxamide] | 0.001 to 0.01 µM | 0.001 to 0.01 µM | > 0.5 µM | –
11 | CCc1nc(C(N)=O)c(Nc2cccc(OCCCNC(=O)[C@H](C)N(C)C(=O)/C=C/CN(C)C)c2)nc1N(C)C(C)C [Compound 145, (S,E)-3-((3-(3-(2-(4-(dimethylamino)-N-methylbut-2-enamido)propanamido)propoxy)phenyl)amino)-6-ethyl-5-(isopropyl(methyl)amino)pyrazine-2-carboxamide] | < 0.001 µM | 0.001 to 0.01 µM | > 0.5 µM | –
12 | CCc1nc(C(N)=O)c(Nc2cccc(OCCCNC(=O)[C@H](C)N(C)C(=O)/C=C/CN3CC(F)(F)C3)c2)nc1NC1CCOCC1 [Compound 147, (S,E)-3-((3-(3-(2-(4-(3,3-difluoroazetidin-1-yl)-N-methylbut-2-enamido)propanamido)propoxy)phenyl)amino)-6-ethyl-5-((tetrahydro-2H-pyran-4-yl)amino)pyrazine-2-carboxamide] | 0.01 to 0.1 µM | > 0.5 µM | > 0.5 µM | –
13 | CCc1nc(C(N)=O)c(Nc2cccc(OCCCNC(=O)[C@H](C)N(C)C(=O)/C=C/CN(C)C)c2)nc1N1CCC1 [Compound 148, (S,E)-5-(azetidin-1-yl)-3-((3-(3-(2-(4-(dimethylamino)-N-methylbut-2-enamido)propanamido)propoxy)phenyl)amino)-6-ethylpyrazine-2-carboxamide] | 0.001 to 0.01 µM | 0.001 to 0.01 µM | > 0.5 µM | –
14 | CCc1nc(C(N)=O)c(Nc2cc(F)cc(OCCCNC(=O)[C@H](C)N(C)C(=O)/C=C/CN(C)C)c2)nc1N(C)C [Compound 149, (S,E)-5-(dimethylamino)-3-((3-(3-(2-(4-(dimethylamino)-N-methylbut-2-enamido)propanamido)propoxy)-5-fluorophenyl)amino)-6-ethylpyrazine-2-carboxamide] | < 0.001 µM | 0.001 to 0.01 µM | > 0.5 µM | –
15 | CCc1nc(C(=O)NC)c(Nc2cc(F)cc(OCCCNC(=O)C(C)N(C)C(=O)/C=C/CN(C)C)c2)nc1N(C)C (stereo not shown) [Compound 151, (E)-5-(dimethylamino)-3-((3-(3-(2-(4-(dimethylamino)-N-methylbut-2-enamido)propanamido)propoxy)-5-fluorophenyl)amino)-6-ethyl-N-methylpyrazine-2-carboxamide] | > 0.5 µM | > 0.5 µM | > 0.5 µM | –
16 | CCc1nc(C(N)=O)c(Nc2cc(F)cc(O[C@@H](C)CNC(=O)[C@H](C)N(C)C(=O)/C=C/CN(C)C)c2)nc1N(C)C [Compound 153, 5-(dimethylamino)-3-((3-(((S)-1-((S)-2-((E)-4-(dimethylamino)-N-methylbut-2-enamido)propanamido)propan-2-yl)oxy)-5-fluorophenyl)amino)-6-ethylpyrazine-2-carboxamide] | 0.001 to 0.01 µM | 0.01 to 0.1 µM | > 0.5 µM | –
17 | CCc1nc(C(N)=O)c(Nc2cc(F)cc(O[C@H](C)CNC(=O)C(C)N(C)C(=O)/C=C/CN(C)C)c2)nc1N(C)C (stereo partly drawn) [Compound 155, 5-(dimethylamino)-3-((3-(((2R)-1-(2-((E)-4-(dimethylamino)-N-methylbut-2-enamido)propanamido)propan-2-yl)oxy)-5-fluorophenyl)amino)-6-ethylpyrazine-2-carboxamide] | 0.01 to 0.1 µM | 0.01 to 0.1 µM | > 0.5 µM | –
18 | CC#CC(=O)N(C)[C@@H](C)C(=O)NCCc1cccc(Nc2nc(C)c(CC)nc2C(N)=O)c1 [Compound 206, 3-[3-[2-[[(2S)-2-[but-2-ynoyl(methyl)amino]propanoyl]amino]ethyl]anilino]-6-ethyl-5-methyl-pyrazine-2-carboxamide] | 0.01 to 0.1 µM | > 0.5 µM | > 0.5 µM | –
19 | CCc1nc(C(N)=O)c(Nc2cccc(CCNC(=O)C(C)(C)N(C)C(=O)/C=C/CN(C)C)c2)nc1C [Compound 229, (E)-3-((3-(2-(2-(4-(dimethylamino)-N-methylbut-2-enamido)-2-methylpropanamido)ethyl)phenyl)amino)-6-ethyl-5-methylpyrazine-2-carboxamide] | > 0.5 µM | > 0.5 µM | > 0.5 µM | –
20 | CCCNc1nc(Nc2ccc(C#N)cc2)ncc1C#CCCCNC(=O)[C@H](C)N(C)C(=O)/C=C/CN(C)C [FF-10101] | – | – | – | demonstrated activity
